Laboratory results as given in the CheMixHub viscosity set.

Test: xn = mol fraction of the nth substance listed

Oc1ccccc1 + O
viscosity [mPa·s], 101 kPa
Conditions	293.15 K	303.15 K	313.15 K	323.15 K
x1 = 0.004	1.056	0.8342	0.6816	0.5696
x1 = 0.008	1.107	0.8703	0.7185	0.5898
x1 = 0.01	1.16	0.9071	0.737	0.611
x1 = 0.02	1.215	0.9485	0.7664	0.634
x1 = 0.021	–	–	–	0.66
x1 = 0.31	–	2.972	2.253	1.775
x1 = 0.36	4.372	3.153	2.383	1.858
x1 = 0.43	4.731	3.393	2.553	1.981
x1 = 0.52	5.273	3.742	2.792	2.164
x1 = 0.63	6.146	4.288	3.161	2.42
x1 = 0.78	–	–	3.77	–

COCCOCCOC + CCCCCCCCCO
101 kPa
Conditions	viscosity [mPa·s]
293.15 K, x1 = 0.03749	9.714
293.15 K, x1 = 0.09901	7.617
293.15 K, x1 = 0.1933	5.424
293.15 K, x1 = 0.2971	3.978
293.15 K, x1 = 0.4043	3.002
293.15 K, x1 = 0.4948	2.43
293.15 K, x1 = 0.597	1.978
293.15 K, x1 = 0.6959	1.641
293.15 K, x1 = 0.822	1.36
293.15 K, x1 = 0.9135	1.201
293.15 K, x1 = 0.9364	1.177
303.15 K, x1 = 0.03786	6.826
303.15 K, x1 = 0.1002	5.439
303.15 K, x1 = 0.1822	4.165
303.15 K, x1 = 0.2967	3.028
303.15 K, x1 = 0.4005	2.353
303.15 K, x1 = 0.5022	1.911
303.15 K, x1 = 0.5943	1.603
303.15 K, x1 = 0.7009	1.347
303.15 K, x1 = 0.7989	1.167
303.15 K, x1 = 0.894	1.038
303.15 K, x1 = 0.9511	0.975
313.15 K, x1 = 0.03928	4.899
313.15 K, x1 = 0.1017	4.015
313.15 K, x1 = 0.198	3.05
313.15 K, x1 = 0.304	2.349
313.15 K, x1 = 0.3952	1.91
313.15 K, x1 = 0.5025	1.559
313.15 K, x1 = 0.5982	1.312
313.15 K, x1 = 0.6977	1.134
313.15 K, x1 = 0.7914	1.001
313.15 K, x1 = 0.8971	0.884
313.15 K, x1 = 0.9456	0.842

COCCOCCOC + C1CCCCC1
viscosity [mPa·s], 101.33 kPa
Conditions	x1 = 0.0981	x1 = 0.1885	x1 = 0.2854	x1 = 0.3996	x1 = 0.5024	x1 = 0.6005	x1 = 0.7027	x1 = 0.8014	x1 = 0.898
298.15 K	0.794	0.765	0.76	0.769	0.785	0.808	0.843	0.882	0.924
303.15 K	0.734	0.706	0.702	0.714	0.73	0.751	0.779	0.813	0.851
308.15 K	0.677	0.654	0.653	0.65	0.679	0.697	0.725	0.756	0.792

CCCCCCn1cc[n+](C)c1.F[B-](F)(F)F + CCCCCO
101.33 kPa, x1 = 0.135
Conditions	viscosity [mPa·s]
315 K	5.305
315.75 K	4.745

O=C1NC(=O)c2ccccc21 + c1ccncc1
298.15 K, 101 kPa
Conditions	viscosity [mPa·s]
x1 = 0.0278	0.9878
x1 = 0.06788	1.182

COC(=O)OC + CCCO
101.3 kPa
Conditions	viscosity [mPa·s]
293.15 K, x1 = 0.0508	1.875
293.15 K, x1 = 0.0875	1.683
293.15 K, x1 = 0.1647	1.362
293.15 K, x1 = 0.2944	1.024
293.15 K, x1 = 0.3858	0.885
293.15 K, x1 = 0.544	0.751
293.15 K, x1 = 0.6026	0.716
293.15 K, x1 = 0.7041	0.666
293.15 K, x1 = 0.89	0.61
293.15 K, x1 = 0.9015	0.606
293.15 K, x1 = 0.951	0.608
298.15 K, x1 = 0.0517	1.675
298.15 K, x1 = 0.0898	1.493
298.15 K, x1 = 0.1903	1.147
298.15 K, x1 = 0.2896	0.936
298.15 K, x1 = 0.3944	0.803
298.15 K, x1 = 0.498	0.725
298.15 K, x1 = 0.5993	0.673
298.15 K, x1 = 0.7016	0.631
298.15 K, x1 = 0.8007	0.598
298.15 K, x1 = 0.8994	0.579
298.15 K, x1 = 0.949	0.576
303.15 K, x1 = 0.0728	1.404
303.15 K, x1 = 0.0829	1.367
303.15 K, x1 = 0.184	1.072
303.15 K, x1 = 0.2605	0.919
303.15 K, x1 = 0.3758	0.769
303.15 K, x1 = 0.4849	0.685
303.15 K, x1 = 0.6278	0.613
303.15 K, x1 = 0.7071	0.594
303.15 K, x1 = 0.8061	0.569
303.15 K, x1 = 0.9018	0.554
303.15 K, x1 = 0.9507	0.542
313.15 K, x1 = 0.0498	1.198
313.15 K, x1 = 0.0973	1.066
313.15 K, x1 = 0.1985	0.86
313.15 K, x1 = 0.3015	0.721
313.15 K, x1 = 0.4025	0.639
313.15 K, x1 = 0.5021	0.584
313.15 K, x1 = 0.6029	0.546
313.15 K, x1 = 0.7038	0.521
313.15 K, x1 = 0.8033	0.5
313.15 K, x1 = 0.9073	0.489
313.15 K, x1 = 0.951	0.489

ClC(Cl)C(Cl)Cl + CCCCCCCC
303.15 K, 101 kPa
Conditions	viscosity [mPa·s]
x1 = 0.1642	0.536
x1 = 0.2409	0.562
x1 = 0.3162	0.61
x1 = 0.3944	0.655
x1 = 0.4996	0.725
x1 = 0.5896	0.794
x1 = 0.6696	0.864
x1 = 0.7658	0.976
x1 = 0.8847	1.167
x1 = 0.9045	1.208

CNc1ccccc1 + c1ccccc1
298.15 K, 101 kPa
Conditions	viscosity [mPa·s]
x2 = 0.069	1.851
x2 = 0.11	1.728
x2 = 0.17	1.601
x2 = 0.264	1.433
x2 = 0.376	1.226
x2 = 0.387	1.202
x2 = 0.428	1.156
x2 = 0.513	1.055
x2 = 0.582	0.966
x2 = 0.697	0.842
x2 = 0.802	0.747
x2 = 0.852	0.71
x2 = 0.93	0.656

COC(=O)OC + CCC(C)O
101.3 kPa
Conditions	viscosity [mPa·s]
293.15 K, x1 = 0.0505	2.908
293.15 K, x1 = 0.0986	2.37
293.15 K, x1 = 0.2131	1.522
293.15 K, x1 = 0.2801	1.235
293.15 K, x1 = 0.4092	0.94
293.15 K, x1 = 0.511	0.83
293.15 K, x1 = 0.6172	0.753
293.15 K, x1 = 0.7072	0.696
293.15 K, x1 = 0.7997	0.637
293.15 K, x1 = 0.8229	0.621
293.15 K, x1 = 0.9518	0.595
298.15 K, x1 = 0.0572	2.399
298.15 K, x1 = 0.0994	1.991
298.15 K, x1 = 0.1958	1.354
298.15 K, x1 = 0.3029	0.991
298.15 K, x1 = 0.3339	0.926
298.15 K, x1 = 0.5075	0.756
298.15 K, x1 = 0.6051	0.707
298.15 K, x1 = 0.7037	0.641
298.15 K, x1 = 0.808	0.569
298.15 K, x1 = 0.9046	0.531
298.15 K, x1 = 0.9523	0.542
303.15 K, x1 = 0.0573	1.931
303.15 K, x1 = 0.0842	1.728
303.15 K, x1 = 0.1936	1.195
303.15 K, x1 = 0.2981	0.943
303.15 K, x1 = 0.3926	0.809
303.15 K, x1 = 0.4938	0.709
303.15 K, x1 = 0.59	0.632
303.15 K, x1 = 0.6561	0.594
303.15 K, x1 = 0.7945	0.549
303.15 K, x1 = 0.8916	0.547
303.15 K, x1 = 0.9483	0.546
313.15 K, x1 = 0.0498	1.512
313.15 K, x1 = 0.1005	1.289
313.15 K, x1 = 0.2009	0.975
313.15 K, x1 = 0.2952	0.795
313.15 K, x1 = 0.4047	0.669
313.15 K, x1 = 0.5109	0.6
313.15 K, x1 = 0.6072	0.561
313.15 K, x1 = 0.6982	0.529
313.15 K, x1 = 0.7992	0.502
313.15 K, x1 = 0.8977	0.486
313.15 K, x1 = 0.9583	0.486
